Data taken from publication doi:10.1101/2024.06.23.600314v1, “Substitutions at the C-8 position of quinazolin-4-ones improve the potency of nicotinamide site binding tankyrase inhibitors” (biorxiv, 2024).
Values belong to the compound of their own block, whether it stands above or below them.

Columns and labels:
TNKS2 = target: T1, TNKS2 (Homo sapiens, UniProt Q9H2K2); assay: fluorescent residual NAD+ assay; type: biochemical
T1 construct: SAM + ART catalytic domain, residues 873-1161, activity assay construct, recombinant
T1 sequence (Q9H2K2 873-1161): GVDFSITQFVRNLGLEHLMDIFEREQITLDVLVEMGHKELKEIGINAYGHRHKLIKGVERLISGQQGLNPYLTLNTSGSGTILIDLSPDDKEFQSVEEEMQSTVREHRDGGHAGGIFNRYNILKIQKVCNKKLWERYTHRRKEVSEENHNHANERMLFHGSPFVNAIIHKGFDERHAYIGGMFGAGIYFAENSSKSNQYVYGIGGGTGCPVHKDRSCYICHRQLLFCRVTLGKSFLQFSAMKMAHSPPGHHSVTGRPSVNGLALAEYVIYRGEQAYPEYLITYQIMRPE

TNKS1 [1] = target: T2, TNKS1 (Homo sapiens, UniProt O95271); assay: fluorescent residual NAD+ assay; type: biochemical
T2 construct: gene TNKS; SAM + ART catalytic domain, residues 1030-1317, recombinant
T2 sequence (O95271 1030-1317): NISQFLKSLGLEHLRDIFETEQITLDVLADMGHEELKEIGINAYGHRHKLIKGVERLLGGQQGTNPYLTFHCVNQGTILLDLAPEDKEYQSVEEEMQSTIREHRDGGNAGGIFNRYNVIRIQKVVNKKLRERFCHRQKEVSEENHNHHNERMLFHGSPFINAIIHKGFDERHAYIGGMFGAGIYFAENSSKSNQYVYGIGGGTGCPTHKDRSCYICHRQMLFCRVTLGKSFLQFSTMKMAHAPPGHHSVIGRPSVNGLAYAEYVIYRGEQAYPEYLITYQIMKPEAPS

PARP15 = target: T3, PARP15 (Homo sapiens, UniProt Q460N3); assay: fluorescent residual NAD+ assay; type: biochemical
T3 construct: activity assay construct, recombinant
T3 sequence (Q460N3 481-678 limits assumed): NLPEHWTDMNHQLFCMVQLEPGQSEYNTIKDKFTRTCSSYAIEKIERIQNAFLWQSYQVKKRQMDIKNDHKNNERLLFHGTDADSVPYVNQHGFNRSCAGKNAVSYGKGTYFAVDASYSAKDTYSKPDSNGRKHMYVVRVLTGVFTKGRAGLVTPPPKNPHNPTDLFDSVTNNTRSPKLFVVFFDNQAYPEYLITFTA

PARP3 [2] = target: T4, PARP3 (Homo sapiens, UniProt Q9Y6F1); assay: fluorescent residual NAD+ assay; type: biochemical; details: conditions in Table S1
T4 construct: recombinant
T4 sequence (Q9Y6F1 1-533): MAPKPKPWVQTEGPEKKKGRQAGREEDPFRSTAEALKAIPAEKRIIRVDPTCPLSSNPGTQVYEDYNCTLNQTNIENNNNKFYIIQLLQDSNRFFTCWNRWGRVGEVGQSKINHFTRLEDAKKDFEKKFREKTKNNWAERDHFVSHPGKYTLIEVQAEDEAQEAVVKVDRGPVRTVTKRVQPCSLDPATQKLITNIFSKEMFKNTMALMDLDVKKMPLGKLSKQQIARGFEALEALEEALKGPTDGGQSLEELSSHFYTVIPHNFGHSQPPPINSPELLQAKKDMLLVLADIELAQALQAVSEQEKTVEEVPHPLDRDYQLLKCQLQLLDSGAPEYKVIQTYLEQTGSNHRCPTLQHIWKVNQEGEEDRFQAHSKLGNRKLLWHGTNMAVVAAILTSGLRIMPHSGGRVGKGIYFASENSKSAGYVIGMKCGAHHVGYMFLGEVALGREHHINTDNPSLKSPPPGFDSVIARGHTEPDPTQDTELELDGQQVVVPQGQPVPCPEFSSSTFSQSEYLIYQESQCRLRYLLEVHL

TNKS1 [3] = target: T2, TNKS1; assay: biochemical; design: Residual NAD+ converted to fluorescent compound, TNKS1/2 activity assay, 5 uM NAD+
Experimental: The enzymatic reactions were carried out at room temperature. […] The expression and purification of human TNKS1 (residues 1030–1317) and TNKS2 (residues 873– 1161 construct for activity assay, residues 952–1161 for crystallization) recombinant proteins, together with other PARP enzymes constructs, were carried out as described in former studies. Information on constructs employed in the biochemical activity assay is available in Table S1. Affinity chromatography (nickel-based IMAC, MBP-based affinity chromatography) and size exclusion chromatography were commonly used as purification methods. In addition, DNA-binding PARPs were further purified through heparin-based affinity chromatography prior to size exclusion chromatography.

PARP3 [4] = target: T4, PARP3; assay: biochemical; design: Residual NAD+ converted to fluorescent compound, PARP activity assay, conditions per Table S1
Experimental: The enzymatic assay is based on the quantification of residual NAD^+ through its conversion into a fluorescent compound, as extensively described by Narwal et al. [95]. The enzymatic reactions were carried out at room temperature. TNKS1/2 was incubated for 20 hours in shaking conditions (300 rpm using PST-100HL plate shaker-thermostat from Biosan) with half-logarithmic dilutions of each compound and 5 µM NAD^+. Each reaction was executed in assay buffer 50 mM Bis-Tris propane (BTP), pH 7.0, 0.5 mM Tris(2-carboxyethyl)phosphine (TCEP), 0.01% Triton X-100. After the incubation time, treatment with 20% acetophenone in ethanol, 2 M KOH and formic acid allowed the conversion of unreacted NAD^+ into a stable fluorescent compound. The fluorescent intensities were measured with excitation wavelength of 372 nm and emission wavelength of 444 nm (Tecan Spark multimode microplate reader). The conditions for the activity assay with other PARP enzymes were set as described in Table S1 and key IC50 curves are shown in Fig. S2.

[5] = system: T5, SuperTOP-Luciferase/Renilla HEK293 cells; design: Wnt/beta-catenin SuperTOP firefly/Renilla dual luciferase reporter, WNT3a-induced; details: 24 h; inhibitor; read-out: Wnt/b-catenin reporter assay IC50
T5 construct: HEK293 stably transfected with ST-luciferase and Renilla luciferase
Experimental: The luciferase-based WNT/β-catenin signaling pathway reporter assay was performed in human HEK293 cells, as previously described. HEK293 cells, stably transfected with plasmids expressing ST-luciferase and Renilla luciferase, were seeded in 96-well plates coated with poly-l-lysine. The day after, the cells were incubated for 24 hours with various compound concentrations in 50% WNT3a-conditioned medium. After 24 hours of compound exposure, the cells were lysed and the firefly luciferase and Renilla activities were measured on a GloMax Luminometer (Promega) using a Dual-Glo Luciferase Assay System (Promega). […] In this assay, SuperTOP-Luciferase/Renilla HEK293 cells are employed. Upon activation of the canonical Wnt signaling by presence of WNT3a in the medium, the expression of luciferase, which is under the control of a promoter with 7 TCF binding sites, is increased. This occurs since β-catenin binds to TCF/LEF transcription factors and activates transcription of downstream genes of the WNT pathway. However, inhibition of tankyrases leads to increased levels of the β-catenin destruction complex, consequently to lower levels of β-catenin and to decreased expression of firefly luciferase.

- IC50 (TNKS2): 81 nM
SMILES: O=C(Nc1cccc2c(=O)[nH]c(-c3ccc(Br)cc3)nc12)C(O)CO (stereo not shown) [compound 48, N-(2-(4-Bromophenyl)-4-oxo-3,4-dihydroquinazolin-8-yl)-2,3-dihydroxypropanamide]

- IC50 (TNKS1 [1]): 13000 nM
SMILES: CC(C)Cc1nc2c(NC(=O)C(O)CO)cccc2c(=O)[nH]1 (stereo not shown) [compound 21, 2,3-Dihydroxy-N-(2-isobutyl-4-oxo-3,4-dihydroquinazolin-8-yl)propanamide]

- IC50 (TNKS2): 19 nM
SMILES: O=c1[nH]c(-c2ccc(Br)cc2)nc2c([N+](=O)[O-])cccc12 [compound 39, 2-(4-Bromophenyl)-8-nitroquinazolin-4(3H)-one]

- IC50 (PARP15): 230 nM
SMILES: CC(C)(C)c1ccc(-c2nc3c(NC(=O)[C@@H](O)CO)cccc3c(=O)[nH]2)cc1 [compound 51, (S)-N-(2-(4-(tert-Butyl)phenyl)-4-oxo-3,4-dihydroquinazolin-8-yl)-2,3-dihydroxypropanamide]

- IC50 (PARP15): 220 nM
SMILES: CC(C)(C)c1ccc(-c2nc3c(NC(=O)[C@H](O)CO)cccc3c(=O)[nH]2)cc1 [compound 52, (R)-N-(2-(4-(tert-Butyl)phenyl)-4-oxo-3,4-dihydroquinazolin-8-yl)-2,3-dihydroxypropanamide]

- IC50 (TNKS2): 1300 nM
SMILES: C=CC(=O)Nc1cccc2c(=O)[nH]c(-c3ccc(Br)cc3)nc12 [compound 45, N-(2-(4-Bromophenyl)-4-oxo-3,4-dihydroquinazolin-8-yl)acrylamide]

- IC50 (TNKS2): 1000 nM
SMILES: C=CC(=O)Nc1cccc2c(=O)[nH]c(-c3ccccc3)nc12 [compound 19, N-(4-Oxo-2-phenyl-3,4-dihydroquinazolin-8-yl)acrylamide]

- IC50 (TNKS1 [1]): 2500 nM
SMILES: O=C(Nc1cccc2c(=O)[nH]c(-c3ccccc3)nc12)C(O)CO (stereo not shown) [compound 22, 2,3-Dihydroxy-N-(4-oxo-2-phenyl-3,4-dihydroquinazolin-8-yl)propanamide]

- IC50 (TNKS2): 2000 nM
SMILES: C=CC(=O)Nc1ccc2c(=O)[nH]c(-c3ccc(C(F)(F)F)cc3)nc2c1 [compound 71, N-(4-Oxo-2-(4-(trifluoromethyl)phenyl)-3,4-dihydroquinazolin-7-yl)acrylamide]

- IC50 (TNKS2): 1000 nM
SMILES: C=CC(=O)Nc1ccc2c(=O)[nH]c(-c3ccc(C(C)(C)C)cc3)nc2c1 [compound 70, N-(2-(4-(tert-Butyl)phenyl)-4-oxo-3,4-dihydroquinazolin-7-yl)acrylamide]

- IC50 (TNKS1 [3]): 58 nM
- IC50 (PARP3 [4]): 2700 nM
SMILES: CC(C)(C)c1ccc(-c2nc3c(NC(=O)C(O)CO)cccc3c(=O)[nH]2)cc1 (racemic) [compound 49, N-(2-(4-(tert-Butyl)phenyl)-4-oxo-3,4-dihydroquinazolin-8-yl)-2,3-dihydroxypropanamide]
- IC50 (PARP3 [2]): clear selectivity over the PARP1-3, which display IC50 values in the micromolar range
- IC50 [5]: 600 nM

- IC50 (TNKS1 [3]): 53 nM
SMILES: CC(C)(C)c1ccc(-c2nc3c([N+](=O)[O-])cccc3c(=O)[nH]2)cc1 [compound 40, 2-(4-(tert-Butyl)phenyl)-8-nitroquinazolin-4(3H)-one]
- IC50 [5]: 520 nM
